“Also recorded” adds a separate entry of the source. Where two headings read alike, the source gives them in different places.
Legend:
[1] = test system: coenzyme-binding glucose dehydrogenase; assay: Inhibitor test, additives added to Enzymatic activity measurement method 1; type: biochemical, Aspergillus terreus
[2] = test system: coenzyme-binding glucose dehydrogenase; assay: Substrate specificity and Km value, Enzymatic activity measurement method 1; type: biochemical, Aspergillus terreus
Procedure: Employing each of D-glucose and other substrates (each at 333 mM as a final concentration, except for D-cellobiose at 193 mM, D-trehalose and D-raffinose at 121 mM), the enzymatic activity of this enzyme was measured by the Enzymatic activity measurement method 1. The activity on each substrate is represented as a relative value to the activity of this enzyme on D-glucose being regarded as 100%, and shown in Table 1.
Similarly, the relative reactivities (enzymatic activity) on D-glucose and maltose each at two final concentrations, i.e. 550 mM and 100 mM, were measured. The results are represented as relative values based on the value on D-glucose.

[3] = test system: glucose dehydrogenase whose coenzyme is a flavin adenine dinucleotide of Aspergillus oryzae; details: cited from earlier work
[4] = test system: glucose dehydrogenase whose coenzyme is the pyrroloquinolinequinone derived from Pseudomonas sp.; details: relative to glucose = 100%; cited from earlier work
[5] = target: glucose dehydrogenase whose coenzyme is the pyrroloquinolinequinone derived from Gluconobacter suboxydans (Gluconobacter oxydans, UniProt P27175); details: relative to glucose = 100%; cited from earlier work
Chain of glucose dehydrogenase whose coenzyme is the pyrroloquinolinequinone derived from Gluconobacter suboxydans (P27175 34-808): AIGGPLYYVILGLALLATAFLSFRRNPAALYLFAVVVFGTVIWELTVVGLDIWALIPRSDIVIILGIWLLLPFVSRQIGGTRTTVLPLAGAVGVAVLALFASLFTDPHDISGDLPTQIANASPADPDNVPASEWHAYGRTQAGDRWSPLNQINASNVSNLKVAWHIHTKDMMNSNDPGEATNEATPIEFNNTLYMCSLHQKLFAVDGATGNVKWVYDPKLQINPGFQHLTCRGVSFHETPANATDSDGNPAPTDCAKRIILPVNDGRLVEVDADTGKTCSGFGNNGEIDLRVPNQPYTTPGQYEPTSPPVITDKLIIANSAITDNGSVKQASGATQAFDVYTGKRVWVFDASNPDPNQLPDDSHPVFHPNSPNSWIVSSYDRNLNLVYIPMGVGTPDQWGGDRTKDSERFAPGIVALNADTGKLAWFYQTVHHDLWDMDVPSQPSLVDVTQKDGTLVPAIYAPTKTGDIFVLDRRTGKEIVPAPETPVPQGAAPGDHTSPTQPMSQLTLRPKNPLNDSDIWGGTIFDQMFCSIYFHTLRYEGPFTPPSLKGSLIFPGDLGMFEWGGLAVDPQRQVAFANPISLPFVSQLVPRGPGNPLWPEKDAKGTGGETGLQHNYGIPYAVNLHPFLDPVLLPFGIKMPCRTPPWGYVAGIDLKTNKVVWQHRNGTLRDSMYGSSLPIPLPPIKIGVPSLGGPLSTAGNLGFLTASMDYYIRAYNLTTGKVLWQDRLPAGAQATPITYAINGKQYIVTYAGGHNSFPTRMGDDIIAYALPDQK

[6] = target: glucose dehydrogenase whose coenzyme is the pyrroloquinolinequinone derived from Escherichia coli (Escherichia coli, UniProt P15877); details: relative to glucose = 100%; cited from earlier work
Chain of glucose dehydrogenase whose coenzyme is the pyrroloquinolinequinone derived from Escherichia coli (P15877 whole entry): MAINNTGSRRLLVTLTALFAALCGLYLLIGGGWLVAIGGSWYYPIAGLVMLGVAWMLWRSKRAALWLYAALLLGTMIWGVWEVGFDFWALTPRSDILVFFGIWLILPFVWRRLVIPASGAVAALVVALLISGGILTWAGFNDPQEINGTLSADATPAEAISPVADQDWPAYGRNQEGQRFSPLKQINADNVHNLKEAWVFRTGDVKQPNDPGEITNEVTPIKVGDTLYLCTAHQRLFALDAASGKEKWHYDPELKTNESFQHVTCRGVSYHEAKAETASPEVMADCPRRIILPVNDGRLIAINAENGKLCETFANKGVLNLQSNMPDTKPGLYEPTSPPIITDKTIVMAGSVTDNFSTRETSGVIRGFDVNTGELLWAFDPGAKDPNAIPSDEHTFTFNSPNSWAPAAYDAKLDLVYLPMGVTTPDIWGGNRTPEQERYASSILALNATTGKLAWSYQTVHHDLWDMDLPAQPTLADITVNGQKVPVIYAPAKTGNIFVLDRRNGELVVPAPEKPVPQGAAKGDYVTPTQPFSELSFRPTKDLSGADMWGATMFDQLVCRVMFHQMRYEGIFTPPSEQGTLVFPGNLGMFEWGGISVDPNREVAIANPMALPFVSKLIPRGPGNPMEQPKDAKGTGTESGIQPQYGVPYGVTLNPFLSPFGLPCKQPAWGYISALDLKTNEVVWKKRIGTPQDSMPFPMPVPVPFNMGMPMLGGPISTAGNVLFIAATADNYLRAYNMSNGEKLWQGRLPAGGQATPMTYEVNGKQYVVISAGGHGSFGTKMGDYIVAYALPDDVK

[7] = additive 1 mM final concentration
[8] = substrate 333 mM final, activity on D-glucose = 100%
[9] = substrate final conc. 100 mM, D-glucose = 100%
[10] = substrate final conc. 550 mM, D-glucose = 100%
[11] = substrate 121 mM final, activity on D-glucose = 100%

Compound | Inhibition (%) [1, 7] | Activity of the enzyme on the substrate (in words) ([2]; summary of Tables 1 and 2) | Inhibition (%) [1] | further results
CC(C)(S)C(N)C(=O)O (racemic) [DL-Penicillamine] | 4.3% |  |  | 
OC[C@H]1OC[C@H](O)[C@@H](O)[C@@H]1O [1,5-Anhydro-D-glucitol] |  | lower activity; also recorded: weakly |  | Relative activity (%) [2, 8]: 2%
c1cnc2c(c1)ccc1cccnc12 [1,10-Phenanthroline] | 62.0% |  |  | Inhibition (in words) [3]: not inhibited; Inhibitory effect ([1]; 1 mM final concentration, methanol 10% (v/v)): 62.0%; Inhibit (%) ([1]; 5 mM final concentration, methanol 10% (v/v)): 76%; Inhibit (%) ([1]; 10 mM final concentration, methanol 10% (v/v)): 85%; Inhibit (%) ([1]; 25 mM final concentration, methanol 10% (v/v)): 91%; Inhibit (%) ([1]; 50 mM final concentration, methanol 10% (v/v)): 95%
c1ccc(-c2ccccn2)nc1 [2,2′-Bipyridine] | 10.8% |  |  | 
O=CC[C@@H](O)[C@H](O)[C@H](O)CO [2-Deoxy-D-glucose] |  |  |  | Relative activity (%) [2, 8]: 48%
O=C(O)c1ccccc1[N+](=O)[O-] [2-Nitrobenzoic acid] | 44.3% |  |  | 
Oc1cccc2cccnc12 [8-Quinolinol] |  |  | 13.9% | 
CC(O)C(=O)O.CCOc1ccc2nc3cc(N)ccc3c(N)c2c1 [Acrinol] | 29.0% |  |  | 
O=[N+]([O-])[O-].[Ag+] [AgNO3] |  |  | 99.4% | Inhibitory effect (in words) [1]: highest; also recorded: inhibited potently
[Cl][Al]([Cl])[Cl] [AlCl3] |  |  | 0% | 
NN=C(N)N.O=S(=O)(O)O [Aminoguanidine sulfate] |  |  | 1.1% | 
[Ba+2].[Cl-].[Cl-] [BaCl2] | 2.6% |  |  | 
O=C(O)c1ccccc1 [Benzoic acid] |  |  | 0% | 
[Ca+2].[Cl-].[Cl-] [CaCl2] |  |  | 5.7% | 
[Cl][Cd][Cl] [CdCl2] |  |  | 0.8% | 
O=C(O)CC(O)(CC(=O)O)C(=O)O [Citric acid] | 5.6% |  |  | 
[Cl][Cu][Cl] [CuCl2] |  |  | 100% | Inhibitory effect (in words) [1]: highest; also recorded: inhibited potently
N[C@@H]1CON=C1O [Cycloserine] | 3.6% |  |  | 
NCCS [Cysteamine] | 9.8% |  |  | 
OC[C@H]1O[C@@H](O[C@H]2[C@H](O)[C@@H](O)[C@H](O)O[C@@H]2CO)[C@H](O)[C@@H](O)[C@@H]1O [D-Cellobiose] |  | lower activity; also recorded: weakly |  | Relative activity (%) ([2]; substrate 193 mM final, activity on D-glucose = 100%): 2%
O=C(CO)[C@@H](O)[C@H](O)[C@H](O)CO [D-Fructose] |  | lower activity; also recorded: weakly |  | Relative activity (%) [2, 8]: 0.86%
O=C[C@H](O)[C@@H](O)[C@@H](O)[C@H](O)CO [D-Galactose] |  | lower activity; also recorded: weakly |  | Relative activity (%) [2, 8]: 1.2%
O=P(O)(O)O[C@H]1O[C@H](CO)[C@@H](O)[C@H](O)[C@H]1O [D-Glucose-1-phosphate] |  | Almost no activity; also recorded: almost no effect |  | Relative activity (%) [2, 8]: 0.1> %

Compound | Inhibition (%) [1, 7] | Activity of the enzyme on the substrate (in words) ([2]; summary of Tables 1 and 2) | Inhibition (%) [1] | further results
O=C[C@H](O)[C@@H](O)[C@H](O)[C@H](O)COP(=O)(O)O [D-Glucose-6-phosphate] |  | lower activity; also recorded: weakly |  | Relative activity (%) [2, 8]: 1.1%
O=C[C@H](O)[C@@H](O)[C@H](O)[C@H](O)CO [D-Glucose] |  | higher activity; also recorded: potently |  | Km [2]: 49.7 mM; Relative activity (%) [2, 8]: 100%; Relative activity (%) [2, 9]: 100%; Relative activity (%) [2, 10]: 100%
OC[C@@H](O)[C@@H](O)[C@H](O)[C@H](O)CO [D-Mannitol] |  | Almost no activity; also recorded: almost no effect |  | Relative activity (%) [2, 8]: 0.1> %
O=C[C@@H](O)[C@@H](O)[C@H](O)[C@H](O)CO [D-Mannose] |  | lower activity; also recorded: weakly |  | Relative activity (%) [2, 8]: 2.8%
OC[C@H]1O[C@H](OC[C@H]2O[C@H](O[C@]3(CO)O[C@H](CO)[C@@H](O)[C@@H]3O)[C@H](O)[C@@H](O)[C@@H]2O)[C@H](O)[C@@H](O)[C@H]1O [D-Raffinose] |  | Almost no activity; also recorded: almost no effect |  | Relative activity (%) [2, 11]: 0.1> %
O=C[C@H](O)[C@H](O)[C@H](O)CO [D-Ribose] |  | Almost no activity; also recorded: almost no effect |  | Relative activity (%) [2, 8]: 0.1> %
OC[C@@H](O)[C@@H](O)[C@H](O)[C@@H](O)CO [D-Sorbitol] |  | Almost no activity; also recorded: almost no effect |  | Relative activity (%) [2, 8]: 0.1> %
O=C(O)[C@@H](O)[C@H](O)C(=O)O [D-Tartaric acid] | 8.5% |  |  | 
OC[C@H]1O[C@H](O[C@H]2O[C@H](CO)[C@@H](O)[C@H](O)[C@H]2O)[C@H](O)[C@@H](O)[C@@H]1O [D-Trehalose] |  | lower activity; also recorded: weakly |  | Relative activity (%) [2, 11]: 1.7%
O=C[C@H](O)[C@@H](O)[C@H](O)CO [D-Xylose] |  |  |  | Relative activity (%) [2, 8]: 9.1%
O=C(O)CN(CCN(CC(=O)O)CC(=O)O)CC(=O)O [EDTA] |  |  | 0.4% | 
CCO [Ethanol] |  | Almost no activity; also recorded: almost no effect |  | Relative activity (%) [2, 8]: 0.1> %
[Cl][Fe]([Cl])[Cl] [FeCl3] |  |  | 25.0% | 
O=C(O)/C=C/C(=O)O [Fumaric acid] | 3.4% |  |  | 
O=C(O)[C@H](O)[C@@H](O)[C@H](O)[C@H](O)CO [Gluconic acid] |  |  |  | Activity of the enzyme on the substrate (in words) [2]: Almost no activity; also recorded: almost no effect; Relative activity (%) [2]: 0.1> %
OCC(O)CO [Glycerol] |  | Almost no activity; also recorded: almost no effect |  | Relative activity (%) [2, 8]: 0.1> %
OO [H2O2] |  |  | 1.7% | 
[Cl][Hg][Cl] [HgCl2] | 100% |  |  | Inhibitory effect (in words) ([1]; additive 1 mM final concentration, listed as Hg^2+): highest; also recorded: inhibited potently
O=C(O)CI [Iodoacetic acid] |  |  | 9.5% | 
O=C[C@H](O)[C@@H](O)[C@@H](O)CO [L-Arabinose] |  | Almost no activity; also recorded: almost no effect |  | Relative activity (%) [2, 8]: 0.1> %
C[C@H](O)[C@H](O)[C@@H](O)[C@@H](O)C=O [L-Rhamnose] |  | Almost no activity; also recorded: almost no effect |  | Relative activity (%) [2, 8]: 0.1> %
O=C(CO)[C@@H](O)[C@H](O)[C@@H](O)CO [L-Sorbose] |  | Almost no activity; also recorded: almost no effect |  | Relative activity (%) [2, 8]: 0.1> %
OC[C@H]1O[C@@H](O[C@H]2[C@H](O)[C@@H](O)C(O)O[C@@H]2CO)[C@H](O)[C@@H](O)[C@H]1O (stereo partly shown) [Lactose] |  | Almost no activity; also recorded: almost no effect |  | Relative activity (%) [2, 8]: 0.1> %

Compound | Inhibition (%) [1, 7] | Activity of the enzyme on the substrate (in words) ([2]; summary of Tables 1 and 2) | Inhibition (%) [1] | further results
[Cl-].[Li+] [LiCl] | 0.9% |  |  | 
O=C(O)/C=C\C(=O)O [Maleic acid] | 26.2% |  |  | 
O=C(O)CC(O)C(=O)O (stereo not shown) [Malic acid] | 8.1% |  |  | 
OC[C@H]1O[C@H](O[C@H]2[C@H](O)[C@@H](O)[C@H](O)O[C@@H]2CO)[C@H](O)[C@@H](O)[C@@H]1O [Maltose] |  | lower activity; also recorded: weakly |  | Activity on maltose [4]: 3.2%; Relative activity (%) [2, 8]: 1.4%; Relative activity (%) [2, 9]: 0.5%; Relative activity (%) [2, 10]: 2.8%; Activity on maltose [5]: 5%; Activity on maltose [6]: 3%
O=C(O)C(O)C(O)C(=O)O (stereo not drawn) [Meso-tartaric acid] | 5.6% |  |  | 
[Cl-].[Cl-].[Mg+2] [MgCl2] |  |  | 2.8% | 
CCN1C(=O)C=CC1=O [N-Ethylmaleimide] | 1.8% |  |  | 
[Cl-].[Na+] [NaCl] |  |  | 2.5% | 
[N-]=[N+]=[N-].[Na+] [NaN3] |  |  | 0% | 
[Cl][Ni][Cl] [NiCl2] |  |  | 16.5% | 
[Cl][Pb][Cl] [PbCl2] |  |  | 2.7% | 
Nc1ccc2cc3ccc(N)cc3nc2c1 [Proflavin] | 62.0% |  |  | 
CCN(CC)CCCC(C)Nc1c2ccc(Cl)cc2nc2ccc(OC)cc12 (stereo not shown) [Quinacrine] | 5.0% |  |  | 
[Cl][Sn][Cl] [SnCl2] |  |  | 45.5% | 
OC[C@H]1O[C@@](CO)(O[C@H]2O[C@H](CO)[C@@H](O)[C@H](O)[C@H]2O)[C@@H](O)[C@@H]1O [Sucrose] |  | Almost no activity; also recorded: almost no effect |  | Relative activity (%) [2, 8]: 0.1> %
O=S(=O)([O-])c1cc(O)c(O)c(S(=O)(=O)[O-])c1.[Na+].[Na+] [Tirone] |  |  | 2.5% | 
NC(N)=O [Urea] | 1.9% |  |  | 
[Cl-].[Cl-].[Zn+2] [ZnCl2] |  |  | 0% | 
Acriflavine | 49.0% |  |  | 
CoCl2 |  |  | 7.0% | 
TritonX-100 | 6.2% |  |  | 

From US11225645B2 (priority 2002, dated 2022)
